Reference: patent publication US20130303500A1, “COMPOUNDS AND METHODS FOR TREATING NEOPLASIA” (Medexis S.A., priority 2010, published 2013)
pIC50: −log10 of the molar value.

Tests used:
A549 (Lung) cells = test: Sulforhodamine B (SRB) assay, A549; type: cell-based; settings: Homo sapiens
Procedure: (§1) Sulforhodamine B (SRB) assays were performed according to standard National Cancer Institute Guidelines. Briefly, human tumor cells from different cancer panels were seeded into 96 well plates in […] (plating densities ranging from 5-40,000 cells/well depending on the doubling time of individual cell lines) in serum-containing media for twenty-four hours prior to the addition of the compounds to be assayed. After 24 hours, one plate of each cell line was fixed in situ with trichloroacetic acid (TCA). The fixed slides were used to determine the cell population for each cell line at the time of drug addition (Tz). Each compound to be tested was solubilized in dimethyl sulfoxide (DMSO) and the desired concentration was then added to the medium and diluted serially 1:10 to provide a total of five or ten drug concentrations plus control (in a final volume of 200 μL). The starting dose before any dilution was 100 uM for all compounds.
(§2) Following drug addition, each culture was incubated for forty-eight hours. The assay was terminated with the addition of cold TCA. The supernatant was discarded, and the plates were washed with tap water and air dried. SRB solution was then added to each well. After staining, the bound stain was solubilized and the absorbance was read on an automated plate reader at a wavelength of 515 nm.
(§3) Using the absorbance measurements [time zero, (Tz), control growth, (C), and test growth in the presence of drug at the ten concentration levels (Ti)], the percentage growth was calculated at each of the drug concentrations levels. Percentage growth inhibition was calculated as:
(§4) [(Ti−Tz)/(C−Tz)]×100 for concentrations for which Ti>/=Tz
(§5) [(Ti−Tz)/Tz]×100 for concentrations for which Ti<Tz.
(§6) Three dose response parameters were calculated for each experimental agent. Growth inhibition of 50% (GI50) was calculated from [(Ti−Tz)/(C−Tz)]×100=50, which was the drug concentration resulting in a 50% reduction in the net protein increase (as measured by SRB staining) in control cells during the drug. The drug concentration resulting in total growth inhibition (TGI) was calculated from Ti=Tz. The LC50 (concentration of drug resulting in a 50% reduction in the measured protein at the end of the drug treatment as compared to that at the beginning) indicating a net loss of cells following treatment was calculated from [(Ti−Tz)/Tz]×100=−50.
(§7) Values were calculated for each of these three parameters when the level of activity was reached; however, if the effect was not reached or was exceeded, the value for that parameter was expressed as greater or less than the maximum or minimum concentration tested.

MCF7 (Breast) cells = test: Sulforhodamine B (SRB) assay, MCF7; type: cell-based, human
Procedure: as §1, §2, §3, §4, §5, §6, §7

[1] = system: 7 different cell lines (lung, ovarian, prostate, CNS, breast, colon); test: SRB assays across 7 cell lines; type: cell-based, human
Procedure: as §1, §2, §3, §4, §5, §6, §7
SRB provides a colorimetric measure of a compound's anti-cancer activity. SRB assays were performed with compounds of the invention in 7 different cell lines, which represent six different tumor panels (lung, ovarian, prostate, CNS, breast, colon).

H460 (Lung) cells = test: Sulforhodamine B (SRB) assay, H460; type: cell-based, human
Procedure: as §1, §2, §3, §4, §5, §6, §7

PC3 (Prostate) cells = test: Sulforhodamine B (SRB) assay, PC3; type: cell-based; settings: Homo sapiens, Prostate cell, 48 h
Procedure: as §1, §2, §3, §4, §5, §6, §7

DU145 (Prostate) cells = test: MTT cell proliferation/viability assay, DU145; type: cell-based; settings: Homo sapiens, DU-145, 72 h
Procedure: (§8) Cell proliferation/viability was assessed by the MTT [3-(4,5-dimethylthiazol-2-yl)-2,5-diphenyltetrazolium bromide] assay, which is commercially available (Sigma, St. Louis, Mo.). Cells were cultured in 96-well plates for twenty-four hours (7-10.000 cells/well) and incubated with various concentrations of the different compounds—as indicated in the Figures—in serum-containing medium (or left untreated) for seventy-two hours. At the end of incubation, the medium was aspirated and MTT dissolved in RPMI 1640 w/o phenol red was added to each well to a final concentration of 0.25 mg/ml. After four hours incubation in the dark (37° C., 5% CO2) the supernatant was discarded. The converted dye (blue formazan crystals) was solubilized by adding 200 μl dimethylsulfoxide to each well. Absorbance was measured at 550 nm with reference at 655 nm using a spectrophotometer with the respective filters. All assays were performed in triplicate.
(§9) The effect of the different compounds on the proliferation and viability of two cancer cell lines (DU145/prostate and CAKI/renal) was tested through quantitative (4,5-dimethylthiazol-2-yl)-2,5-diphenyltetrazolium bromide (MTT) assays.

SF268 (CNS) cells = test: Sulforhodamine B (SRB) assay, SF268; type: cell-based; settings: Homo sapiens
Procedure: as §1, §2, §3, §4, §5, §6, §7

[2] = system: NCI-ADR-RES (Ovarian) cells; test: Sulforhodamine B (SRB) assay, NCI-ADR-RES (multidrug resistant); type: cell-based, human; settings: 48 h
Procedure: as §1, §2, §3, §4, §5, §6, §7

CAKI (Renal) cells = test: MTT cell proliferation/viability assay, CAKI; type: cell-based; settings: 72 h
Procedure: as §8, §9

HCT116 (Colon) cells = test: Sulforhodamine B (SRB) assay, HCT116; type: cell-based, human
Procedure: as §1, §2, §3, §4, §5, §6, §7

[3] = target: Na+/K+-ATPase (Adenosine 5′-Triphosphatase isolated from porcine cerebral cortex); test: Na+/K+-ATPase inhibitory activity, colorimetric Adenosine 5′-Triphosphatase Enzymatic Assay (Sigma); type: biochemical; settings: enzyme from porcine cerebral cortex, 0.5 units/ml
Procedure: The compound inhibitory effect on ATPase activity was assessed in vitro using the colorimetric Adenosine 5′-Triphosphatase Enzymatic Assay of Sigma (St. Louis, Mo.) according to the manufacturer's instructions. This assay utilizes Adenosine 5′-Triphosphatase isolated from porcine cerebral cortex. Each reaction was performed in a final volume of […] using 0.5 units/ml enzyme in the presence of the different inhibitors. […] IC50 values were determined using the Origin® program software (OriginLab, Northampton, Mass.).

Work on `C[C@]12CCC(=NOC3CCNC3)CC1CCC1C2CC[C@]2(C)C(=O)C(F)CC12` (stereo partly drawn) [Compound 2, (5S,10S,13S,16R)-16a-fluoro-10,13-dimethyl-3-((S)-pyrrolidin-3-yloxyimino)-tetradecahydro-2H-cyclopenta[a]phenanthren-17(14H)-one] yielded a CC50 (A549 (Lung) cells; A549, 48 h, read-out: LC50) of 599 nM, a GI50 (A549 (Lung) cells; A549 Lung, SRB, 48 h) of 9 nM and an IC (TGI) (A549 (Lung) cells; A549 Lung, SRB, 48 h) of 73 nM. For the same compound, the CC50 (MCF7 (Breast) cells; Homo sapiens, MCF7, 48 h, read-out: LC50) was 9780 nM, the GI50 (MCF7 (Breast) cells; Homo sapiens, MCF7 Breast, SRB, 48 h) was 21 nM and the TGI (MCF7 (Breast) cells; MCF7 Breast, SRB, 48 h) was 478 nM. For the same compound, the CC50 ([1]; Homo sapiens, read-out: LC50 values) was under 1000 nM, the GI50 ([1]; Homo sapiens, SRB, average over cell lines) was under 1000 nM and the “viability and/or cell proliferation of cell lines” value ([1]; cell lines representative of lung, breast, CNS, prostate, ovarian, colon and renal neoplasias) was “reduced the viability and/or cell proliferation”. The TGI (H460 (Lung) cells; H460 Lung, SRB, 48 h) was 7 nM, the CC50 (H460 (Lung) cells; Homo sapiens, NCI-H460, 48 h, read-out: LC50) was 54 nM and the GI50 (H460 (Lung) cells; Homo sapiens, NCI-H460, H460 Lung, SRB, 48 h) was under 1 nM. For the same compound, the CC50 (PC3 (Prostate) cells; read-out: LC50) was 962 nM, the GI50 (PC3 (Prostate) cells; PC3 Prostate, SRB) was 46 nM and the IC (TGI) (PC3 (Prostate) cells; PC3 Prostate, SRB) was 414 nM. It also gave a pIC50 (DU145 (Prostate) cells) of 6.60, a CC50 (SF268 (CNS) cells; SF-268, 48 h, read-out: LC50) of 112 nM and a GI50 (SF268 (CNS) cells; SF-268, SF268 CNS, SRB, 48 h) of 3 nM. For the same compound, the IC (TGI) (SF268 (CNS) cells; SF-268, SF268 CNS, SRB, 48 h) was 43 nM, the CC50 ([2]; Homo sapiens, NCI/ADR-RES, read-out: LC50) was 598 nM and the GI50 ([2]; Homo sapiens, NCI-ADR-RES Ovarian, SRB) was 29 nM. For the same compound, the TGI ([2]; NCI-ADR-RES Ovarian, SRB) was 94 nM, the pIC50 (CAKI (Renal) cells) was 5.06 and the TGI (HCT116 (Colon) cells; HCT116 Colon, SRB, 48 h) was 156 nM. For the same compound, the CC50 (HCT116 (Colon) cells; Homo sapiens, HCT-116, 48 h, read-out: LC50) was 998 nM, the GI50 (HCT116 (Colon) cells; Homo sapiens, HCT-116, HCT116 Colon, SRB, 48 h) was 8 nM and the pIC50 [3] was 7.14.
